Measured values reported in patent US8030354B2, “Substituted biphenyl GPR40 modulators” (Amgen Inc., priority 2007, dated 2011).

target: GPR40 (Homo sapiens, UniProt O14842); experiment: Cell-based aequorin assay (CHO cells stably expressing GPR40 and aequorin); design: expressed in transfected cells; host or cells: CHO cells stably transfected with GPR40 and aequorin; details: activation of human GPR40, CHO cells, 0.01% HSA
In short: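 CHO cells stably co-expressing GPR40 and aequorin, loaded with coelenterazine (1 ug/mL, 2 h, room temperature) in H/HBSS with 20 mM Hepes and 0.01% fatty acid-free HSA. Serially diluted compounds added; luminescence recorded over 20 s. EC50 from dose-response of maximum relative light units.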

GPR40, sequence (O14842 whole entry): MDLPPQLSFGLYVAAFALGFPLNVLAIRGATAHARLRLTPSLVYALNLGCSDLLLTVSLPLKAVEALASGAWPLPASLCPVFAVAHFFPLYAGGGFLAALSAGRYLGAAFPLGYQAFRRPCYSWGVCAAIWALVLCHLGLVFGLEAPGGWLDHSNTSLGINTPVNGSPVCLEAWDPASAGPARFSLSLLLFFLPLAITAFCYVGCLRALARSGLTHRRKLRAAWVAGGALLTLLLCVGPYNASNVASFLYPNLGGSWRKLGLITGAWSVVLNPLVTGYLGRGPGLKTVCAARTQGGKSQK

First: C=CC(C)(C)C(O)c1cc(COc2cccc(C(CC(=O)O)CC3CC3)c2)ccc1-c1cc(OC)ccc1F (single isomer, unassigned) [Example 69.40]
Second: CCC(C)(C)C(OC)c1cc(COc2cccc(C(CC(=O)O)CC3CC3)c2)ccc1-c1cc(OC)ccc1F (single isomer, unassigned) [Example 69.41, (3R)-4-Cyclopropyl-3-(3-(((2-((1S)-2,2-dimethyl-1-(methyloxy)butyl)-2′-fluoro-5′-(methyloxy)-1,1′-biphenyl-4-yl)methyl)oxy)phenyl)butanoic acid or (3R)-4-cyclopropyl-3-(3-(((2-((1S)-2,2-dimethyl-1-(methyloxy)butyl)-2′-fluoro-5′-(methyloxy)-1,1′-biphenyl-4-yl)methyl)oxy)phenyl)butanoic acid]
The EC50 of the first is higher: 1000 to 10000 nM for the first, 100 to 1000 nM for the second.

Compared with `COc1ccc(F)c(-c2ccc(COc3cccc([C@@H](CC(=O)O)CC4CC4)c3)cc2[C@@H]2OCCC2(C)C)c1` (single isomer, unassigned) [Example 69.43], `CCC(CC(=O)O)c1cccc(OCc2ccc(-c3cc(OC)ccc3F)c(C3CCCC3(C)C)c2)c1` (single isomer, unassigned) [Example 78.3] is lower in EC50: 1000 to 10000 nM for the first, 100 to 1000 nM for the second. The second is the more potent here.

`COc1ccc(F)c(-c2ccc(COc3cccc(C(CC(=O)O)CC4CC4)c3)cc2COCC=C(C)C)c1` (single isomer, unassigned) [Example 69.45, (3R)-4-Cyclopropyl-3-(3-(((2′-fluoro-2-(((3-methyl-2-butenyl)oxy)methyl)-5′-(methyloxy)-1,1′-biphenyl-4-yl)methyl)oxy)phenyl)butanoic acid or (3S)-4-cyclopropyl-3-(3-(((2′-fluoro-2-(((3-methyl-2-butenyl)oxy)methyl)-5′-(methyloxy)-1,1′-biphenyl-4-yl)methyl)oxy)phenyl)butanoic acid] and `CCOCc1cc(COc2cccc(C(CC)CC(=O)O)c2)ccc1-c1cc(OC)ccc1F` (single isomer, unassigned) [Example 78.12, (3R)-3-(3-(((2-((Ethyloxy)methyl)-2′-fluoro-5′-(methyloxy)-1,1′-biphenyl-4-yl)methyl)oxy)phenyl)pentanoic acid or (3S)-3-(3-(((2-((ethyloxy)methyl)-2′-fluoro-5′-(methyloxy)-1,1′-biphenyl-4-yl)methyl)oxy)phenyl)pentanoic acid] fall in the same range of EC50: 1000 to 10000 nM for the first, 1000 to 10000 nM for the second.

`COc1ccc(F)c(-c2ccc(COc3cccc(C(CC(=O)O)CC4CC4)c3)cc2CN2CCCC2)c1` (single isomer, unassigned) [Example 69.46, (3R)-4-Cyclopropyl-3-(3-(((2′-fluoro-5′-(methyloxy)-2-(1-pyrrolidinylmethyl)-1,1′-biphenyl-4-yl)methyl)oxy)phenyl)butanoic acid or (3S)-4-cyclopropyl-3-(3-(((2′-fluoro-5′-(methyloxy)-2-(1-pyrrolidinylmethyl)-1,1′-biphenyl-4-yl)methyl)oxy)phenyl)butanoic acid] and `COc1ccc(F)c(-c2ccc(COc3cccc(C(CC(=O)O)CC4CC4)c3)cc2CN2CCCCCC2)c1` (single isomer, unassigned) [Example 69.48, (3R)-3-(3-(((2-(1-Azepanylmethyl)-2′-fluoro-5′-(methyloxy)-1,1′-biphenyl-4-yl)methyl)oxy)phenyl)-4-cyclopropylbutanoic acid or (3S)-3-(3-(((2-(1-azepanylmethyl)-2′-fluoro-5′-(methyloxy)-1,1′-biphenyl-4-yl)methyl)oxy)phenyl)-4-cyclopropylbutanoic acid] fall in the same range of EC50: 1000 to 10000 nM for the first, 1000 to 10000 nM for the second.

`COc1ccc(F)c(-c2ccc(COc3cccc(C(CC(=O)O)CC4CC4)c3)cc2CN2[C@H](C)CC[C@H]2C)c1` (single isomer, unassigned) [Example 69.47, (3R)-4-Cyclopropyl-3-(3-(((2-(((2R,5R)-2,5-dimethyl-1-pyrrolidinyl)methyl)-2′-fluoro-5′-(methyloxy)-1,1′-biphenyl-4-yl)methyl)oxy)phenyl)butanoic acid or (3S)-4-cyclopropyl-3-(3-(((2-(((2R,5R)-2,5-dimethyl-1-pyrrolidinyl)methyl)-2′-fluoro-5′-(methyloxy)-1,1′-biphenyl-4-yl)methyl)oxy)phenyl)butanoic acid] and `CCCC(CC(=O)O)c1cccc(OCc2ccc(-c3cc(OC)ccc3F)c(C3CCCC3(C)C)c2)c1` (single isomer, unassigned) [Example 80.3] fall in the same range of EC50: 100 to 1000 nM for the first, 100 to 1000 nM for the second.

`CCCCC(CC(=O)O)c1cccc(OCc2ccc(-c3cc(OC)ccc3F)c(C(C)(C)C)c2)c1` (single isomer, unassigned) [Example 71.1, (3R)-3-(3-(((2-(1,1-Dimethylethyl)-2′-fluoro-5′-(methyloxy)-1,1′-biphenyl-4-yl)methyl)oxy)phenyl)heptanoic acid or (3S-3-(3-(((2-(1,1-dimethylethyl)-2′-fluoro-5′-(methyloxy)-1,1′-biphenyl-4-yl)methyl)oxy)phenyl)heptanoic acid] and `CCC=C[C@H](CC(=O)O)c1cccc(OCc2ccc(-c3cc(OC)ccc3F)c(C(C)(C)C)c2)c1` (single isomer, unassigned) [Example 75, (3S)-3-(3-(((2-(1,1-Dimethylethyl)-2′-fluoro-5′-(methyloxy)-1,1′-biphenyl-4-yl)methyl)oxy)phenyl)-4-heptenoic acid or (3R)-3-(3-(((2-(1,1-dimethylethyl)-2′-fluoro-5′-(methyloxy)-1,1′-biphenyl-4-yl)methyl)oxy)phenyl)-4-heptenoic acid] fall in the same range of EC50: 100 to 1000 nM for the first, 100 to 1000 nM for the second.

`COC[C@H](CC(=O)O)c1cccc(OCc2ccc(-c3cc(OC)ccc3F)c(C3=CCCC3(C)C)c2)c1` (single isomer, unassigned) [Example 74, (3R)-3-(3-(((2-(5,5-Dimethyl-1-cyclopenten-1-yl)-2′-fluoro-5′-(methyloxy)-1,1′-biphenyl-4-yl)methyl)oxy)phenyl)-4-(methyloxy)butanoic acid or (3S)-3-(3-(((2-(5,5-dimethyl-1-cyclopenten-1-yl)-2′-fluoro-5′-(methyloxy)-1,1′-biphenyl-4-yl)methyl)oxy)phenyl)-4-(methyloxy)butanoic acid] and `C=CC(C)(C)C(OC)c1cc(COc2cccc(C(CC)CC(=O)O)c2)ccc1-c1cc(OC)ccc1F` (single isomer, unassigned) [Example 78.13] fall in the same range of EC50: 1000 to 10000 nM for the first, 1000 to 10000 nM for the second.

First: CCC(CC(=O)O)c1cc(OCc2ccc(-c3cc(OC)ccc3F)c(C(C)(C)C)c2)ccc1F (single isomer, unassigned) [Example 76.2, (3R)-3-(5-(((2-(1,1-Dimethylethyl)-2′-fluoro-5′-(methyloxy)-1,1′-biphenyl-4-yl)methyl)oxy)-2-fluorophenyl)pentanoic acid or (3S)-3-(5-(((2-(1,1-dimethylethyl)-2′-fluoro-5′-(methyloxy)-1,1′-biphenyl-4-yl)methyl)oxy)-2-fluorophenyl)pentanoic acid]
Second: COc1ccc(F)c(-c2ccc(COc3cccc(C(CC(=O)O)C4CC4)c3F)cc2C2CCCC2(C)C)c1 (single isomer, unassigned) [Example 83.17]
The EC50 of the first is higher: 1000 to 10000 nM for the first, 100 to 1000 nM for the second. The second is the more potent here.

`CC[C@H](CC(=O)O)c1cccc(OCc2ccc(-c3cc(OC)ncc3F)c(C3(COC)CCCC3)c2)c1F` (single isomer, unassigned) [Example 77.12, (3R)-3-(3-(4-(5-Fluoro-2-methoxypyridin-4-yl)-3-(1-(methoxymethyl)cyclopentyl)benzyloxy)-2-fluorophenyl)pentanoic acid or (3S)-3-(3-(4-(5-fluoro-2-methoxypyridin-4-yl)-3-(1-(methoxymethyl)cyclopentyl)benzyloxy)-2-fluorophenyl)pentanoic acid] and `COCC1(c2cc(COc3cccc(C(CC(=O)O)C4CC4)c3F)ccc2-c2cc(OC)ncc2F)CCCC1` (single isomer, unassigned) [Example 83.30, (3S)-3-(3-(4-(5-Fluoro-2-methoxypyridin-4-yl)-3-(1-(methoxymethyl)cyclopentyl)benzyloxy)-2-fluorophenyl)-3-cyclopropylpropanoic acid or (3R)-3-(3-(4-(5-fluoro-2-methoxypyridin-4-yl)-3-(1-(methoxymethyl)cyclopentyl)benzyloxy)-2-fluorophenyl)-3-cyclopropylpropanoic acid] fall in the same range of EC50: 1000 to 10000 nM for the first, 1000 to 10000 nM for the second.

`CC[C@H](CC(=O)O)c1cccc(OCc2ccc(-c3cccc(OC)c3)c([C@@H]3CCCC3(C)C)c2)c1` (single isomer, unassigned) [Example 78.5] and `CCCC(CC(=O)O)c1cccc(OCc2ccc(-c3cccc(OC)c3)c(C3CCCC3(C)C)c2)c1` (single isomer, unassigned) [Example 80.5] fall in the same range of EC50: 100 to 1000 nM for the first, 100 to 1000 nM for the second.

`COc1cccc(-c2ccc(COc3cccc(C(CC(=O)O)C4CCC4)c3)cc2C2CCCC2(C)C)c1` (single isomer, unassigned) [Example 79.5] and `CCCC(CC(=O)O)c1cccc(OCc2ccc(-c3cccc(OC)c3)c(C3CCCCCC3)c2)c1` (single isomer, unassigned) [Example 80.1, (3R)-3-(3-(((2-Cycloheptyl-3′-(methyloxy)-1,1′-biphenyl-4-yl)methyl)oxy)phenyl)hexanoic acid or (3S)-3-(3-(((2-cycloheptyl-3′-(methyloxy)-1,1′-biphenyl-4-yl)methyl)oxy)phenyl)hexanoic acid] fall in the same range of EC50: 100 to 1000 nM for the first, 100 to 1000 nM for the second.

First: CC1(C)CCC[C@H]1c1cc(COc2cccc([C@H](CC(=O)O)C3CC3)c2F)ccc1-c1cc(C(F)F)ccc1F (single isomer, unassigned) [Example 83.13]
Second: CC1(C)CCC[C@@H]1c1cc(COc2cccc([C@@H](CC(=O)O)C3CC3)c2F)ccc1-c1ccccc1F (single isomer, unassigned) [Example 83.23]
The EC50 of the first is higher: 1000 to 10000 nM for the first, 100 to 1000 nM for the second.

`COc1ccc(F)c(-c2ccc(COc3cccc([C@@H](CC(=O)O)C4CC4)c3F)cc2[C@H](O)C2(C)CC2)c1` (single isomer, unassigned) [Example 83.18] and `COc1ccc(F)c(-c2ccc(COc3cccc([C@H](CC(=O)O)C4CC4)c3F)cc2[C@H](O)C2(C)CC2)c1` (single isomer, unassigned) [Example 83.19] fall in the same range of EC50: 1000 to 10000 nM for the first, 1000 to 10000 nM for the second.
